US11339163B2, “BRaf inhibitors and use thereof for treatment of cutaneous reactions” (Lutris Pharma Ltd., priority 2017, dated 2022)

How the values were obtained:
GP = conditions: in vivo
Salmonella typhimurium = assay: In vitro Ames test, reverse mutation assay; format: cell-based
PDGFRβ(h) = PDGFRβ(h) (Homo sapiens, UniProt P09619); assay: KinaseProfiler kinase selectivity assay; format: biochemical
Method: (§1) All compounds were prepared to 50× final assay concentration in 100% DMSO. This working stock of the compound was added to the assay well as the first component in the reaction, followed by the remaining components. In the standard KinaseProfiler™ service, there is no pre-incubation step between the compound and the kinase prior to initiation of the reaction. The positive control wells contain all components of the reaction, except the compound of interest; however, DMSO (at a final concentration of 2%) is included in these wells to control for solvent effects. The blank wells contain all components of the reaction, with a reference inhibitor replacing the compound of interest. This abolishes kinase activity and establishes the base-line (0% kinase activity remaining).

Fyn(h) = Fyn(h) (Homo sapiens, UniProt P06241); assay: KinaseProfiler kinase selectivity assay; format: biochemical
Sequence of Fyn(h) (P06241 whole entry): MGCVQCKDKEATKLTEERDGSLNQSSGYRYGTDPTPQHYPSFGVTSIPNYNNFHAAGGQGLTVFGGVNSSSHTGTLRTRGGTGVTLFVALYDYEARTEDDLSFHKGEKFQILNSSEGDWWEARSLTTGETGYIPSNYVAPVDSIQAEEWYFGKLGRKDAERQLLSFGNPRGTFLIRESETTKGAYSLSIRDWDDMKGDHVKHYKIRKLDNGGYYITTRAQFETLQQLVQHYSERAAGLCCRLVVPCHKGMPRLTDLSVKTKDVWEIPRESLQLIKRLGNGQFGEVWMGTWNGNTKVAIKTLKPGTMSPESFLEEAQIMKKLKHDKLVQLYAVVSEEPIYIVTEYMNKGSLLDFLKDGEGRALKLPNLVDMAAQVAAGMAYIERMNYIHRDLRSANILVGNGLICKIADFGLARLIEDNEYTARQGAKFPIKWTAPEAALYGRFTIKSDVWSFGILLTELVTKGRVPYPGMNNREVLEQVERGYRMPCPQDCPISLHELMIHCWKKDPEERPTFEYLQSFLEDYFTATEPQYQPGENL
Method: as §1

CHK1(h) = CHK1(h) (Homo sapiens, UniProt O14757); assay: KinaseProfiler kinase selectivity assay; format: biochemical
Method: as §1

eEF-2K(h) = eEF-2K(h) (Homo sapiens, UniProt O00418); assay: KinaseProfiler kinase selectivity assay; format: biochemical
Method: as §1

TAK1(h) = TAK1(h) (Homo sapiens, UniProt O43318); assay: KinaseProfiler kinase selectivity assay; format: biochemical
Sequence of TAK1(h) (O43318 1-303 limits assumed): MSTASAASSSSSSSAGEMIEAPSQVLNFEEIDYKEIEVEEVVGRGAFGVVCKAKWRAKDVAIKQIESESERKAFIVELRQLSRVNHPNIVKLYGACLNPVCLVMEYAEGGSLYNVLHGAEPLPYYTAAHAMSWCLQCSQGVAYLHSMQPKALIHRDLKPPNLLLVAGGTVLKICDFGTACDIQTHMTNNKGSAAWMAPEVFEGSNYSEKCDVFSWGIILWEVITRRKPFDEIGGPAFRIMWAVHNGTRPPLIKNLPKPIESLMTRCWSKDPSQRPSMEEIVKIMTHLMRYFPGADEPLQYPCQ
Method: as §1

PKG1α(h) = PKG1α(h) (Homo sapiens, UniProt Q13976); assay: KinaseProfiler kinase selectivity assay; format: biochemical
Sequence of PKG1α(h) (Q13976 whole entry): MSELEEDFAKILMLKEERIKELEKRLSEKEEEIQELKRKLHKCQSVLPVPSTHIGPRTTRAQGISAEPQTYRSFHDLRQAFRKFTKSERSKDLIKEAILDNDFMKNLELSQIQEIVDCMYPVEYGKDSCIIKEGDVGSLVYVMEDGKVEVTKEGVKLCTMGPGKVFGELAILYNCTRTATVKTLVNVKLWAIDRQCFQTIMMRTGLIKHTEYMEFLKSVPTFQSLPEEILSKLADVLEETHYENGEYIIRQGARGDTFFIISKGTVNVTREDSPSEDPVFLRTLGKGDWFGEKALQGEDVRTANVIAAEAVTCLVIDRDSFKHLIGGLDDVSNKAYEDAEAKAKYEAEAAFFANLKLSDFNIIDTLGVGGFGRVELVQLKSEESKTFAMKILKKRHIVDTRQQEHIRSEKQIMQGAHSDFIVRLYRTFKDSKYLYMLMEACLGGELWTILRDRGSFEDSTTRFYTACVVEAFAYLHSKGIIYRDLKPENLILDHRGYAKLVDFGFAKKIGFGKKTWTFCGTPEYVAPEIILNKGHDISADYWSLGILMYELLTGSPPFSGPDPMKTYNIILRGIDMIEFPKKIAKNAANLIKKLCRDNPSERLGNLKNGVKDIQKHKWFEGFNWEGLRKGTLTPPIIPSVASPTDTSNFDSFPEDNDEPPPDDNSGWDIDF
Method: as §1

Lyn(h) = Lyn(h) (Homo sapiens, UniProt P07948); assay: KinaseProfiler kinase selectivity assay; format: biochemical
Sequence of Lyn(h) (P07948 whole entry): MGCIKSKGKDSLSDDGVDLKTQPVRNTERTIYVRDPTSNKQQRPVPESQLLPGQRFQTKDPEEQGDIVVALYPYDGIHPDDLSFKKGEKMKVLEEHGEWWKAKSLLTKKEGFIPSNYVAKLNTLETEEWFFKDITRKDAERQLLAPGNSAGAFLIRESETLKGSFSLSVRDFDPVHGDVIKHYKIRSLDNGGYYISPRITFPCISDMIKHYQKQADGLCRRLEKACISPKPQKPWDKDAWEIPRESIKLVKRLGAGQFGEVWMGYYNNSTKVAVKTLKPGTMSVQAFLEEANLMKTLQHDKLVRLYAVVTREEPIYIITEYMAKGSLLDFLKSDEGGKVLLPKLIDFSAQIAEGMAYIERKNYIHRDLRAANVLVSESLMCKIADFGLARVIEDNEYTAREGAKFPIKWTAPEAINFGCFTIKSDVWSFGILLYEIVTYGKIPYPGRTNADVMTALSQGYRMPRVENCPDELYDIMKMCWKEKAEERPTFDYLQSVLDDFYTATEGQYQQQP
Method: as §1

CDK7/cyclinH/MAT1(h) = CDK7/cyclinH/MAT1(h) (Homo sapiens, UniProt P50613); assay: KinaseProfiler kinase selectivity assay; format: biochemical
Sequence of CDK7/cyclinH/MAT1(h) (P50613 whole entry): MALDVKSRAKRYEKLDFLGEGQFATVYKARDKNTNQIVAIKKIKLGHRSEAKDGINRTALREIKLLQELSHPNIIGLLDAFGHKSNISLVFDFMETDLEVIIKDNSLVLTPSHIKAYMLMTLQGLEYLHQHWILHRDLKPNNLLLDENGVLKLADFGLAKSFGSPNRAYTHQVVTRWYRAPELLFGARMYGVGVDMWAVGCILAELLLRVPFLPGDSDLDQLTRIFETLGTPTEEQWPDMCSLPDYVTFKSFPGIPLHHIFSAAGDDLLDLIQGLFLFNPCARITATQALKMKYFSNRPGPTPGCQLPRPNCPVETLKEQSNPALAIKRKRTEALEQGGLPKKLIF
Sequence of CDK7/cyclinH/MAT1(h) (P51946 whole entry partner): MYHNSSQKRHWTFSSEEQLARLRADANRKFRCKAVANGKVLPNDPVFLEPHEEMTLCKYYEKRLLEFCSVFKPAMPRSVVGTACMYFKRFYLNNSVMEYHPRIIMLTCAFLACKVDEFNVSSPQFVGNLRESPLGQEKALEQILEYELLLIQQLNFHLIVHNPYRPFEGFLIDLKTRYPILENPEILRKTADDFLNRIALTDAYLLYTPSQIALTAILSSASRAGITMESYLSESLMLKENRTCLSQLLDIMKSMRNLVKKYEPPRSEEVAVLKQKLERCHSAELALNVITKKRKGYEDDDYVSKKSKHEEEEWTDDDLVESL
Sequence of CDK7/cyclinH/MAT1(h) (P51948 whole entry partner): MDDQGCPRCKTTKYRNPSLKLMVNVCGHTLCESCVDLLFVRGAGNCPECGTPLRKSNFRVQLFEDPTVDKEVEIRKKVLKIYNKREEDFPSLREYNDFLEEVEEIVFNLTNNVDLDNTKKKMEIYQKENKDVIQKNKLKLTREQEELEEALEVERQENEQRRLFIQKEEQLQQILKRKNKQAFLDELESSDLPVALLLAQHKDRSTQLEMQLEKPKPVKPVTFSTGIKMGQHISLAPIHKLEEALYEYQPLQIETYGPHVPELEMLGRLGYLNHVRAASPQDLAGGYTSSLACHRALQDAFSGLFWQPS
Method: as §1

PKBα(h) = PKBα(h) (Homo sapiens, UniProt P31749); assay: KinaseProfiler kinase selectivity assay; format: biochemical
Method: as §1

mTOR(h) = mTOR(h) (Homo sapiens, UniProt P42345); assay: KinaseProfiler kinase selectivity assay; format: biochemical
Method: as §1

MSK2(h) = MSK2(h) (Homo sapiens, UniProt O75676); assay: KinaseProfiler kinase selectivity assay; format: biochemical
Method: as §1

KDR(h) = KDR(h) (Homo sapiens, UniProt P35968); assay: KinaseProfiler kinase selectivity assay; format: biochemical
Method: as §1

CDK6/cyclinD3(h) = CDK6/cyclinD3(h) (Homo sapiens, UniProt Q00534); assay: KinaseProfiler kinase selectivity assay; format: biochemical
Sequence of CDK6/cyclinD3(h) (Q00534 whole entry): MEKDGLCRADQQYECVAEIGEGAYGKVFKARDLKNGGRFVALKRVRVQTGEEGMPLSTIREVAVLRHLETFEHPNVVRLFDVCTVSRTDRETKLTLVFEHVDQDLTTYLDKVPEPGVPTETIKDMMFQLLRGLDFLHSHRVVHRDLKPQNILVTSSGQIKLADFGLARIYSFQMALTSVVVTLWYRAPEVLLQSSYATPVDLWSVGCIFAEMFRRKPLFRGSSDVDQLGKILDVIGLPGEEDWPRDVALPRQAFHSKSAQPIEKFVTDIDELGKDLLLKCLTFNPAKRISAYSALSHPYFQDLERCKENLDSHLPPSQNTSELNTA
Sequence of CDK6/cyclinD3(h) (P30281 whole entry partner): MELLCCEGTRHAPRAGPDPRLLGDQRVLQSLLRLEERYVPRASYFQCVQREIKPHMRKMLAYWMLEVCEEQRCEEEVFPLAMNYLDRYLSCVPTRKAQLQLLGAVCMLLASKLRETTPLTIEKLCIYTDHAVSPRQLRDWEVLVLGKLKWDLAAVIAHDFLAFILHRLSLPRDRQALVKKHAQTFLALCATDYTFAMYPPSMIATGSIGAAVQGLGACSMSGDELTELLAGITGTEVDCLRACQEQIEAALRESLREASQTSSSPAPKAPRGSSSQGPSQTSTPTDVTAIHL
Method: as §1

Rse(h) = Rse(h) (Homo sapiens, UniProt Q06418); assay: KinaseProfiler kinase selectivity assay; format: biochemical
Method: as §1

EphB4(h) = EphB4(h) (Homo sapiens, UniProt P54760); assay: KinaseProfiler kinase selectivity assay; format: biochemical
Sequence of EphB4(h) (P54760 16-987): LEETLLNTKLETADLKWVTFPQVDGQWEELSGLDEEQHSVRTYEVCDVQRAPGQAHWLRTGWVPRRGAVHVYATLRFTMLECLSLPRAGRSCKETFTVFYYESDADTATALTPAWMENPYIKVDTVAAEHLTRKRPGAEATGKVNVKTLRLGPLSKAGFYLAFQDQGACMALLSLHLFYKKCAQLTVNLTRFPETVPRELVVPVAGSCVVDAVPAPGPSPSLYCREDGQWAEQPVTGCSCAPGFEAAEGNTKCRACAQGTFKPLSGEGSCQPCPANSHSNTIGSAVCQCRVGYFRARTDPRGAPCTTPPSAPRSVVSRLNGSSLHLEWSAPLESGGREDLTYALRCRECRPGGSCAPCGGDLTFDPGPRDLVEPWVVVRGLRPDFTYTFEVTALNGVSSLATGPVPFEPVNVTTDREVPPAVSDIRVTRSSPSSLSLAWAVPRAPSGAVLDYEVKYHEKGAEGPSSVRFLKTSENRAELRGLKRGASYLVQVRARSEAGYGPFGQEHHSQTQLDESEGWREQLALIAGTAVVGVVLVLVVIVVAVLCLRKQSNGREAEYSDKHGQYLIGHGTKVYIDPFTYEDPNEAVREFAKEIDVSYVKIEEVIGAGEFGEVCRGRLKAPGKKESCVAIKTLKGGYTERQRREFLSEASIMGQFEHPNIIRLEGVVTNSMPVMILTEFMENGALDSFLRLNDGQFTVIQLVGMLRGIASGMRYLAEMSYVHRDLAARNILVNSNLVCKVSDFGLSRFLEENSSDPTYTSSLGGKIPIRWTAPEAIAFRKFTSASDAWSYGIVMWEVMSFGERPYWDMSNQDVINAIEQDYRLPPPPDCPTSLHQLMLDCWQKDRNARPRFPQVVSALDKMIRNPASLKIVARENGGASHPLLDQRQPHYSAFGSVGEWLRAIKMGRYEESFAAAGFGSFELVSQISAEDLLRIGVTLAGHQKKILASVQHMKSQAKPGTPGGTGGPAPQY
Method: as §1

JAK2(h) = JAK2(h) (Homo sapiens, UniProt O60674); assay: KinaseProfiler kinase selectivity assay; format: biochemical
Method: as §1

Aurora-A(h) = Aurora-A(h) (Homo sapiens, UniProt O14965); assay: KinaseProfiler kinase selectivity assay; format: biochemical
Method: as §1

minipigs = assay: MTD Dermal Minipigs; format: in vivo; conditions: 5 mg/kg/day for up to 6 days
[1] = ex vivo skin permeation and penetration, MedFlux-HT diffusion cells; format: in vitro ADME; conditions: topical composition comprising LUT014; skin sample; after 24 hours; citrate/phosphate buffer pH 4.0 with 0.01% Brij
Method: An ex vivo permeation and penetration experiment for a topical composition comprising LUT-014 was conducted using MedFlux-HT™ continuous flow through diffusion cells. A skin sample was placed between donor and receptor compartments of the diffusion cell. The diffusion of the topical composition was measured using a citrate/phosphate buffer (pH 4.0) with 0.01% Brij as a receptor solution. LUT014 permeated into the skin sample was extracted using 90/10 acetonitrile/water as an extraction solvent.

[2] = tested on: BALB/c-3T3 mouse fibroblasts; assay: 3T3 neutral red uptake phototoxicity assay; format: cell-based; conditions: mouse, 24 h
Method: Therefore, the compounds of the present disclosure were screened for phototoxicity using the 3T3 natural red uptake assay.
In brief, BALB/c-3T3 mouse fibroblasts (originally obtained from ATCC) were seeded in 96-well plates at 12,000 cells per well, and grown for 24 hr. Test compounds and the positive control (chlorpromazine) were solubilized and serially diluted in DMSO. The negative control (histidine) was solubilized and diluted in HBSS. A dilution for all test articles was then made into HBSS at the final testing concentrations. At the start of the assay, the growth medium was removed from the plates and replaced with test agent dilution. Six replicates were used for each concentration. Cells were incubated in the dark with test article for 1 h, exposed to UVA light (2.5 J/cm2 over 18 min) and incubated 24 hrs. in the dark. A parallel non-irradiated plate was treated similarly, except it was stored in the dark, rather than illuminated.
For Neutral Red staining, medium was removed and fresh medium containing 25 μg/mL of Neutral Red (Sigma) was added. After three hours incubation, the cells were washed with PBS, and the cellular dye was solubilized with 1% acetic acid in 50% ethanol. Cellular Neutral Red was measured by its absorbance at 540 nm.
Data analysis: An IC50 (concentration that causes 50% reduction in viability) was calculated for each condition by linear interpolation.
A Photo-Irritation Factor (PIF) was calculated: PIF=IC50(−Irr)/IC50(+Irr)
PIF>5 indicates phototoxicity; 2<PIF<5 indicates probable phototoxicity; PIF<2 indicates no phototoxicity
In addition, the Mean Photo Effect (MPE) was calculated by comparison of the complete concentration-response curves. MPE is a weighted average of the difference in response of equivalent doses normalized by the shift in IC50.
MPE>0.15 indicates phototoxicity; 0.1<MPE<0.15 indicates probable phototoxicity; MPE<0.1 indicates no phototoxicity.

## Cc1ccc2c(Nc3cccc(OC(F)(F)F)c3)nccc2c1Nc1ncccc1-c1ncnc2[nH]cnc12 [LUT014]
GP
  dermal sensitization: The test article is not
Salmonella typhimurium
  mutagenicity, Salmonella typhimurium reverse mutation assay: not mutagenic
PDGFRβ(h); Lut014 @ 0.01 μM
  remaining activity at 0.01 µM: 98%
PDGFRβ(h); Lut014 @ 1 μM
  remaining activity at 1 µM: 103%
Fyn(h); Lut014 @ 0.01 μM
  remaining activity at 0.01 µM: 103%
Fyn(h); Lut014 @ 1 μM
  remaining activity at 1 µM: 95%
CHK1(h); Lut014 @ 0.01 μM
  remaining activity at 0.01 µM: 100%
CHK1(h); Lut014 @ 1 μM
  remaining activity at 1 µM: 114%
eEF-2K(h); Lut014 @ 0.01 μM
  remaining activity at 0.01 µM: 95%
eEF-2K(h); Lut014 @ 1 μM
  remaining activity at 1 µM: 106%
TAK1(h); Lut014 @ 0.01 μM
  remaining activity at 0.01 µM: 91%
TAK1(h); Lut014 @ 1 μM
  remaining activity at 1 µM: 97%
PKG1α(h); Lut014 @ 0.01 μM
  remaining activity at 0.01 µM: 99%
PKG1α(h); Lut014 @ 1 μM
  remaining activity at 1 µM: 111%
Lyn(h); Lut014 @ 0.01 μM
  remaining activity at 0.01 µM: 101%
Lyn(h); Lut014 @ 1 μM
  remaining activity at 1 µM: 46%
CDK7/cyclinH/MAT1(h); Lut014 @ 0.01 μM
  remaining activity at 0.01 µM: 105%
CDK7/cyclinH/MAT1(h); Lut014 @ 1 μM
  remaining activity at 1 µM: 109%
PKBα(h); Lut014 @ 0.01 μM
  remaining activity at 0.01 µM: 102%
PKBα(h); Lut014 @ 1 μM
  remaining activity at 1 µM: 105%
mTOR(h); Lut014 @ 0.01 μM
  remaining activity at 0.01 µM: 100%
mTOR(h); Lut014 @ 1 μM
  remaining activity at 1 µM: 96%
MSK2(h); Lut014 @ 0.01 μM
  remaining activity at 0.01 µM: 92%
MSK2(h); Lut014 @ 1 μM
  remaining activity at 1 µM: 96%
KDR(h); Lut014 @ 0.01 μM
  remaining activity at 0.01 µM: 96%
KDR(h); Lut014 @ 1 μM
  remaining activity at 1 µM: 79%
CDK6/cyclinD3(h); Lut014 @ 0.01 μM
  remaining activity at 0.01 µM: 100%
CDK6/cyclinD3(h); Lut014 @ 1 μM
  remaining activity at 1 µM: 103%
Rse(h); Lut014 @ 0.01 μM
  remaining activity at 0.01 µM: 106%
Rse(h); Lut014 @ 1 μM
  remaining activity at 1 µM: 113%
EphB4(h); Lut014 @ 0.01 μM
  remaining activity at 0.01 µM: 93%
EphB4(h); Lut014 @ 1 μM
  remaining activity at 1 µM: 38%
JAK2(h); Lut014 @ 0.01 μM
  remaining activity at 0.01 µM: 126%
JAK2(h); Lut014 @ 1 μM
  remaining activity at 1 µM: 118%
Aurora-A(h); Lut014 @ 0.01 μM
  remaining activity at 0.01 µM: 95%
Aurora-A(h); Lut014 @ 1 μM
  remaining activity at 1 µM: 97%
minipigs
  tolerability: well tolerated in minipigs at
[1]
  maximum accumulated level of LUT014 in the receptor solution: less than 2 ng/mL
[2]
  phototoxicity (3T3 NRU), stated in words: Lut014 is classified as non-phototoxic
